The nature of test [1]: Luminescence Cell-Based Dose Confirmation HTS to Identify Activators of 5'UTR Stem-Loop Driven Alpha-Synuclein mRNA Translation in H4 Neuroglioblastoma Cells. [Related pubchem assays: 1829 (Project Summary), 1814 (Primary HTS)]. It is filed as functional.
The next test deals with H4. The test is described as follows: Luminescence Cell-Based Dose Response HTS to Identify Activators of 5'UTR Stem-Loop Driven Prion Protein mRNA Translation in H4 Neuroglioblastoma Cells. [Related pubchem assays: 1829 (Project Summary), 1814 (Primary HTS)]. It counts as functional. As to conditions: Homo sapiens.
A short description of test [2]: Luminescence Cell-Based Dose Response HTS to Identify Activators of Luciferase Translation or Activity in H4 […] Cells. [Related pubchem assays: 1829 (Project Summary), 1814 (Primary HTS)]. It counts as functional.
Test [3] in a line: NIH-3T3 fibroblast cytotoxicity, dose response, cytotoxicity control, cell-based, fluorescence, Alamar Blue, secondary assay (AID 2327).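 Note: NIH-3T3 mouse fibroblasts cultured with fluconazole at 8 µg/mL.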 It counts as functional. For orientation: Resazurin is reduced to fluorescent resorufin, in cell work by metabolically active cells.
A short description of test [4]: fluconazole-exposed Candida albicans growth modulators – fluorescence, retest, confirmation (AID 2467). It counts as functional, cell-based.
Test [5] is described as follows: NIH3T3 cell viability loss – ATP luminescence, mouse fibroblasts, counter-screen, dose response (AID 2010).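 Note: cells exposed to compound for about 90 hours before reading.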 It is filed as functional, cell-based.
A short description of test [6]: Trypanosoma cruzi growth suppression in host cells – NIH3T3 host cells, beta-gal luminescence, confirmation (AID 2044).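 Note: intracellular parasites grown in NIH/3T3 mouse fibroblasts as host cells; luminescent beta-galactosidase reporter signal from transgenic T. cruzi replicating inside host cells; inhibitors lower the luminescence signal.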 It is filed as functional, cell-based.
Test [7] is described as follows: reduction of Shn3 3'UTR-driven luciferase in osteoblasts – cell-based, Clone20 osteoblasts, firefly luciferase, cherry-picked, dose response (AID 624132).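 Note: firefly luciferase luminescence from reporter carrying the Shn3 3'UTR in osteoblasts.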 It is filed as functional.
Test [8] is described as follows: viability of uninfected HEp-2 cells – cell-based, HTS, cytotoxicity control for RSV inhibitor project, dose response (AID 2410). It counts as functional. The note with it: human respiratory syncytial virus.
A further test deals with T1, Protein skinhead-1 (Caenorhabditis elegans, UniProt P34707).
T1 sequence (P34707 whole entry): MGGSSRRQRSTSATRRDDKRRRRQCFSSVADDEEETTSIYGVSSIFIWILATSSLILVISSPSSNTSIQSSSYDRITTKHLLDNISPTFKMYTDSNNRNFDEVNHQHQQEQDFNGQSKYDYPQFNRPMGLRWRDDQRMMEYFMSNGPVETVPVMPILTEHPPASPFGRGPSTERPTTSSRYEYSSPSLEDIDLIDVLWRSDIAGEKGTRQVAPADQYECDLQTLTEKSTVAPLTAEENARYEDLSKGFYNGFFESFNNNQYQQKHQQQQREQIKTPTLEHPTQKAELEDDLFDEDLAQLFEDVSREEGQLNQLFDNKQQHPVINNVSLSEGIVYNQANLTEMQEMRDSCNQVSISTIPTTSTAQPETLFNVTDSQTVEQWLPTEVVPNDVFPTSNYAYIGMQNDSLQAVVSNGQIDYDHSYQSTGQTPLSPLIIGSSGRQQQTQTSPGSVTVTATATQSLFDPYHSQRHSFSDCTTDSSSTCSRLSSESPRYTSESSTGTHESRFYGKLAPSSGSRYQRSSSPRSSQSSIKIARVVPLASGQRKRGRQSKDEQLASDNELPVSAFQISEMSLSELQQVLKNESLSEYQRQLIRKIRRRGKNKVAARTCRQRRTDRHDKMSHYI
It is filed as functional.

Test [9] deals with Streptococcus sp. 'group A'. Kind of test: Streptococcus pyogenes SK(-)GAS viability under kanamycin – luminescence, BacTiterGlo, confirmation, counter-screen for streptokinase expression inhibitor project, dose response (AID 1900). It is filed as functional, organism-based.
The next test concerns Streptococcus. Kind of test: GAS UMAA2166 growth inhibition – luminescence, BacTiterGlo, counter-screen for streptokinase expression inhibitor project, dose response (AID 1915).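 Note: potency for reduction of bacterial viability or growth.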 It is filed as functional, organism-based.
The nature of test [10]: microbe, parasite or virus in culture. It counts as functional. As to conditions: Mycobacterium tuberculosis.
The target of the next test is T2, Streptokinase A (Streptococcus pyogenes serotype M1, UniProt P10520).
T2 sequence (P10520 whole entry): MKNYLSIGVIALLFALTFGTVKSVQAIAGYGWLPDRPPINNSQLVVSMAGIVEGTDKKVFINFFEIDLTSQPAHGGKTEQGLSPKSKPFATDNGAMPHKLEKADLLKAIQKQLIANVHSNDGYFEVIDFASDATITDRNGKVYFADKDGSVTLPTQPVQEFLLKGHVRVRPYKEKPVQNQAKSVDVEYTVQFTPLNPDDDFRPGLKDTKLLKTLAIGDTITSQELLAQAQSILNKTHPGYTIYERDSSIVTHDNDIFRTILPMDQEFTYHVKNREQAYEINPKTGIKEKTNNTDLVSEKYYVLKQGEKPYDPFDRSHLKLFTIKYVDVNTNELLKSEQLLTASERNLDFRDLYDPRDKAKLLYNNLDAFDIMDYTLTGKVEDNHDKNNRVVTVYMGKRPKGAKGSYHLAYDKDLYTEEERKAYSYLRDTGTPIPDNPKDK
The test is described as follows: viability-normalized secreted streptokinase activity reduction – plasminogen activation absorbance, OD405, dose response (AID 1914).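 Note: secreted streptokinase activity via plasminogen activation per viability signal from cell pellet.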 It counts as functional, Streptococcus pyogenes M1 GAS.

The next test deals with H9c2. Kind of test: cells. As to conditions: Rattus norvegicus, H9c2, Myocardium. It counts as functional, cell-based.
Test [11] concerns the target T3, Corticotropin-releasing factor receptor 2/Corticotropin-releasing factor-binding protein (Homo sapiens, UniProt P24387+Q13324).
T3 sequence (Q13324 whole entry): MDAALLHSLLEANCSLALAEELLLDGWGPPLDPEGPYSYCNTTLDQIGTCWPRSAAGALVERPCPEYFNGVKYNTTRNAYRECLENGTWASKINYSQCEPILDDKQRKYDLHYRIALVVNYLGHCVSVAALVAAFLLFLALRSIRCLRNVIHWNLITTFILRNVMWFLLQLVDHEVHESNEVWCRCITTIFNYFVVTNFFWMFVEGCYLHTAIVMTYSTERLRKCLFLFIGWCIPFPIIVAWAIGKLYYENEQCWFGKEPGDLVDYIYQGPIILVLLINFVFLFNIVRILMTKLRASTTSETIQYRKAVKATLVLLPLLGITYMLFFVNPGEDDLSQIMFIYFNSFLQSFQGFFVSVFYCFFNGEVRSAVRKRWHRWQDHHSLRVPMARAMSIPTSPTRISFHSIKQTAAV
T3 sequence (P24387 whole entry): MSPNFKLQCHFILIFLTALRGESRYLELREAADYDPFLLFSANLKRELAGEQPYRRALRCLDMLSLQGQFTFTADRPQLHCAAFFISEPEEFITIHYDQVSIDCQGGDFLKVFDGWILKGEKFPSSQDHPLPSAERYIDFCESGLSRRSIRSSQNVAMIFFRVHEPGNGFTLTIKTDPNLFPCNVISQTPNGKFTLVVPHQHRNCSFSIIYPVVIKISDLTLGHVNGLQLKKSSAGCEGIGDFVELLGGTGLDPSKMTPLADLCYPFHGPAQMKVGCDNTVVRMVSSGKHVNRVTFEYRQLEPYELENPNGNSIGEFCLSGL
Kind of test: activators of CRF receptor 2 with binding protein – uHTS hits, confirmation (AID 602473). As to conditions: read-out: EC50_Mean. It counts as functional.

By AC50 is commonly meant the concentration giving half of the maximal activity seen. As a reminder, the IC50 is the point on the concentration scale where inhibition reaches its midpoint.

Activity calls are given as the source filed them. Cut-off read from the data, not from the text of the source, for most assays here: actives have a measured EC50 and inactives only a lower limit. Where only a bound is given, the exact number is not on record here.

As for `O=C1C(Cl)=C(N2CCOCC2)C(=O)N1CCc1ccccc1`, the values for the EC50 (in [1]; in the test on H4; in test [2]) were 0.656 µM (active), > 120 µM (not active) and 1.56 µM (active), respectively.

Regarding `Cc1onc(-c2ccccc2)c1C(=O)NN=C(N)COc1ccc(Cl)cc1`, the results for the EC50 in [3] and in test [4] were > 150 µM (inactive) and > 38 µM (not active), respectively.

Consider `CCSc1ccc2cc(OC)ccc2[n+]1CC`, for which the EC50 in [5] was > 60 µM (not active); in test [3], > 160 µM (inactive); in test [6], 6.53 µM (active); in test [4] it was > 38 µM (not active).

In the case of `O=[N+]([O-])c1ccc(S(=O)(=O)Nc2nc3ccccc3nc2Nc2ccccc2)cc1`, the EC50 in test [3] is > 150 µM (inactive); in [4] it was 2.06 µM (active).

With `C[C@]12CC[C@H](O)CC1=CCC1C2CC[C@@]2(C)C1CCC21OCCO1` (stereo partly specified), in test [7], the concentration at half-maximal activity (AC50) was 27.3 µM (active).

`O=C(C1=NNCC1c1ccccc1)C1OC1c1ccccc1` (stereo unspecified): the values for the EC50 (in [1]; in the test with H4; in test [2]) were 20.8 µM (active), > 120 µM (not active) and 13.5 µM (active), respectively.

Turning to `Cc1cccc(NC(S)=NNC(=O)c2csc(C(C)C)c2)c1`, the figures for the EC50 in test [1], in test [3] and in test [2] were 20.3 µM (active), > 150 µM (inactive) and 36.9 µM (active), respectively. Moreover, the CC50 in [8] was 27.1 µM (active).

As for `C=CCNC(=O)c1cc2c(=O)n3ccccc3nc2s1`, the EC50 was 1.08 µM (active) in test [1] and 0.166 µM (active) in test [2]. For the same compound, at Protein skinhead-1, the IC50 is > 100 µM (inactive).

For the compound `Cc1c(Cl)cccc1Nc1c([N+](=O)[O-])nn(-c2ccccc2)[n+]1[O-]`, the IC50 on Protein skinhead-1 is > 100 µM (inactive).

As for `Cc1nn(-c2ccccc2)c(Cl)c1/C=N/NC(=O)c1ccc(NS(=O)(=O)c2cccs2)cc1`, the EC50 in test [9] is 2.1 µM (active); in test [1] it was 17.3 µM (active); with Streptococcus, 5.04 µM (active); with H4, 9.52 µM (active); in test [2], 7.45 µM (active).

For `COc1cc(/C=C2\C=CC(=O)O2)cc(OC)c1`, the EC50 in [1] was 13.3 µM (active); in the test with H4, > 120 µM (not active); in test [2], 12.2 µM (active).

Take `O=C(/C=C/c1cccs1)c1ccc(Br)cc1`: the IC50 at Protein skinhead-1 was 73.8 µM (inactive).

`O=C(O)c1cnc(-c2ccccc2)nc1Sc1ccccc1Cl`: the EC50 in [3] is > 160 µM (inactive); in test [4], 0.356 µM (active).

For `CCCc1ccc(OCC(=O)Nc2cc(S(=O)(=O)CC)ccc2O)cc1`, the values for the EC50 in [3] and in test [4] were > 160 µM (inactive) and 1.45 µM (active), respectively.

As to `CCOC(=O)C1CCN(C(=O)CSCc2nc(-c3ccc(OCC)cc3)oc2C)CC1`, in test [10], the CC50 was > 40 µM (active).

Regarding `Oc1oc(-c2ccccc2Br)nc1/C=N/c1ccccn1`, the results for the EC50 (in test [1]; with H4; in [2]) were 59.1 µM (active), > 120 µM (not active) and 13 µM (active), respectively.

`CC(=O)Nc1cc(C(F)(F)F)ccc1OCC1CCCO1` (stereo unspecified): the IC50 on Protein skinhead-1 is > 100 µM (inactive).

On to `CC1=C/C(=N\NC(=S)NCCc2ccccc2)CC(C)(C)C1`, for which the EC50 is 11.4 µM (active) in test [9]; 12.1 µM (active) in test [1]; 64 µM (active) on Streptokinase A; > 150 µM (inactive) in test [3]; > 150 µM (not active) in the test with Streptococcus; > 38 µM (not active) in test [4]. Also, the EC50 in the test on H4 is > 120 µM (not active); in [2], 14.2 µM (active).

For `Cc1nc(N2CCN(S(=O)(=O)c3cccc4nonc34)CC2)c2c3c(sc2n1)CCCC3`, the IC50 with H9c2 is > 79 µM (inactive).

With `COc1ccc(NN=Nc2ccc([N+](=O)[O-])cc2)cc1`, the results for the EC50 (in [1]; in the test on H4; in [2]) were 1.01 µM (active), 64.4 µM (active) and 0.485 µM (active), respectively.

As to `C=CCN1C(=O)C(=O)N(Cc2nc3ccccc3s2)C1=O`, the figures for the EC50 (in test [1]; in the test on H4; in test [2]) were 10.7 µM (active), 0.283 µM (active) and 36.3 µM (active), respectively. Besides, on Protein skinhead-1, the IC50 was > 100 µM (inactive).

Take `O=C(CCc1nc(O)c2ccccc2n1)Nc1ccc(F)c([N+](=O)[O-])c1`: the IC50 in the test with H9c2 was > 79 µM (inactive).

On to `O=c1cc(/C=C/c2ccccc2)oc2ccccc12`, for which the CC50 in test [10] was > 40 µM (active). For the same compound, the IC50 on Protein skinhead-1 is 78.9 µM (inactive).

`O=C(Nc1ccc(Br)c(Cl)c1)c1ccco1`: at Protein skinhead-1, the half-inhibitory concentration (IC50) is 14.2 µM (active).

For the compound `O=C(NN=C(S)Nc1cccc(C(F)(F)F)c1)c1ccc(Cl)cc1Cl`, the EC50 in test [3] is > 160 µM (inactive); in [11], > 53 µM (inactive); in test [4], 4.65 µM (active).

Regarding `Cc1ccc(NC(=O)CNC(=O)c2cccs2)cc1S(=O)(=O)Nc1ccc(Cl)cc1`, the IC50 on Protein skinhead-1 is > 100 µM (inactive).

On to `CCN1C(=O)/C(=C/N(C)c2ccccc2)OC1=S`, for which the IC50 at Protein skinhead-1 is 76.6 µM (inactive).

On to `Fc1ccccc1-c1nc(-c2ccc(Cl)cc2)no1`, for which the IC50 at Protein skinhead-1 is > 100 µM (inactive).

With `c1ccc(-c2nc(-n3ccnc3)nc(-n3ccnc3)n2)cc1`, the IC50 in the test with H9c2 was > 79 µM (inactive).

Consider `N#C/C(=C/c1ccc(Sc2nc3ccccc3[nH]2)o1)c1cccc(Br)c1`, for which the CC50 in test [10] was > 40 µM (active).

With `O=C(OCC(=O)N1CCc2ccccc21)c1nnc(O)c2ccccc12`, the IC50 in the test on H9c2 is 12.3 µM (active).

Take `COc1ccccc1Nc1nc(N)nc(CCl)n1`: the CC50 in [10] is 1.88 µM (active).

The values are drawn from ChEMBL document CHEMBL1201862, “PubChem BioAssay data set” (2004).
